ChEMBL document CHEMBL5325413, “Optimization of BAX trigger site activator BTSA1 with improved antitumor potency and in vitro ADMET properties” (Eur J Med Chem, 2023)
The source made the active and inactive calls. No cut-off for these calls is given here.

Experiments:
[1] = human, Liver, 1 h, 100 µM
in vitro [2] = settings: mouse, microsomes
[3] = mouse, microsomes, 1 h, 100 µM
in vitro [4] = settings: human, microsomes
[5] = human, microsomes, 1 h, 100 µM
[6] = mouse, Liver, 1 h, 100 µM
HCT-116 = test: Antiproliferative activity against human HCT-116 cells assessed as cell growth inhibition incubated for 72 hrs by MTT assay; format: functional
A549 [7] = test: Induction of apoptosis in human A549 cells assessed as late apoptotic cells at 10 uM incubated for 48 hrs by Annexin V-FITC/PI staining based flow cytometry analysis (reference value: 2.15%); format: functional
A549 [8] = test: Induction of apoptosis in human A549 cells assessed as early apoptotic cells at 10 uM incubated for 48 hrs by Annexin V-FITC/PI staining based flow cytometry analysis (reference value: 0.708%); format: functional
A549 [9] = test: Induction of apoptosis in human A549 cells assessed as dead cells at 10 uM incubated for 48 hrs by Annexin V-FITC/PI staining based flow cytometry analysis (reference value: 0.739%); format: functional
A549 [10] = test: Induction of apoptosis in human A549 cells assessed as live cells at 10 uM incubated for 48 hrs by Annexin V-FITC/PI staining based flow cytometry analysis (reference value: 96.4%); format: functional
A549 [11] = test: Antiproliferative activity against human A549 cells assessed as cell growth inhibition incubated for 72 hrs by MTT assay; format: functional
A549 [12] = test: Induction of apoptosis in human A549 cells assessed as total apoptotic cells at 10 uM incubated for 48 hrs by Annexin V-FITC/PI staining based flow cytometry analysis (reference value: 2.86%); format: functional
PC-3 = test: Antiproliferative activity against human PC-3 cells assessed as cell growth inhibition incubated for 72 hrs by MTT assay; format: functional
A549 [13] = test: Induction of apoptosis in human A549 cells assessed as upregulation of BAX translocation at 20 uM incubated for 24 hrs by Western blot analysis; format: functional, cell-based

SMILES	GI50 (HCT-116) [µM]	GI50 (A549 [11]) [µM]	GI50 (PC-3) [µM]	also measured
O=C(O)Cc1ccccc1Nc1c(Cl)cccc1Cl [DICLOFENAC]				CLH [1]: 183 mL/min/kg; half-life at 1 h, 100 µM (in vitro [2]): 46.7 min; CLint [3]: 29.7 µL/min/mg; half-life at 1 h, 100 µM (in vitro [4]): 6.8 min; CLint [5]: 203 µL/min/mg; CLH [6]: 0.1176 mL/min/kg
CC1=NN(c2ccc(C(=O)N3CCC(N(C)C)CC3)cc2)C(=O)/C1=N\Nc1ccccc1	3.42	8.99	4.94	Activity (A549 [7]): 1.57%; Activity (A549 [8]): 11.7%; Activity (A549 [9]): 4.37%; Activity (A549 [10]): 82.4%; Activity (A549 [12]): 13.3%
CN(C)CCCNC(=O)c1ccc(N2N=C(c3ccccc3)/C(=N/Nc3ccccc3)C2=O)cc1	2.14	3.32	3.76	
CN(C)C1CCN(C(=O)c2ccc(N3N=C(c4ccccc4)C(=C4CCN(C(=O)c5ccc(O)cc5)CC4)C3=O)cc2)CC1	34.7	33.6	> 50	
CN1CCN(C(=O)c2ccc(N3N=C(c4ccccc4)/C(=N/Nc4ccccc4)C3=O)cc2)CC1	21.9	22.9	> 50	
O=C1/C(=N\Nc2ccccc2)C(c2ccccc2)=NN1c1ccccc1	> 50	> 50	> 50	
CN1CCC(NC(=O)c2cccc(N3N=C(c4ccccc4)/C(=N/Nc4ccccc4)C3=O)c2)CC1	5.83	9.06	15	
CN(C)C1CCN(C(=O)c2ccc(N3N=C(c4ccccc4)C(=C4CCN(C(=O)c5cc6cc(Cl)ccc6[nH]5)CC4)C3=O)cc2)CC1	> 50	43.6	> 50	
CC1CCN(C(=O)c2cccc(N3N=C(c4ccccc4)/C(=N/Nc4ccccc4)C3=O)c2)CC1	3.44	2.72	2.41	
N[C@@H]1CCCN(C(=O)c2ccc(N3N=C(c4ccccc4)/C(=N/Nc4ccccc4)C3=O)cc2)C1	2.96	8.38	5.39	Activity (A549 [7]): 3.21%; Activity (A549 [8]): 8.59%; Activity (A549 [9]): 0.814%; Activity (A549 [10]): 6.22%; Activity (A549 [12]): 11.8%
O=C(c1ccc(N2N=C(c3ccccc3)/C(=N/Nc3ccccc3)C2=O)cc1)N1CCNCC1	> 50	> 50	> 50	
CN(C)C1CCN(C(=O)c2ccc(N3N=C(c4ccccc4)/C(=N/Nc4cc(C(F)(F)F)cc(C(F)(F)F)c4)C3=O)cc2)CC1	1.76	4.54	1.15	Activity (A549 [7]): 10.1%; Activity (A549 [8]): 34.7%; Activity (A549 [9]): 0.996%; Activity (A549 [10]): 54.3%; Activity (A549 [12]): 44.8%
CN(C)C1CCN(C(=O)c2ccc(N3N=C(c4ccccc4)C(=C4CCN(C(=O)c5cscn5)CC4)C3=O)cc2)CC1	11.7	16.6	16.8	
CN(C)C1CCN(C(=O)c2ccc(N3N=C(c4ccccc4)/C(=N/Nc4ccc(OCc5ccccc5)cc4)C3=O)cc2)CC1	> 20	5.03	> 20	
CN(C)C1CCN(C(=O)c2ccc(N3N=C(c4ccccc4)/C(=C/Nc4ccccc4)C3=O)cc2)CC1	14.8	> 20	> 20	
CN1CCC(NC(=O)c2ccc(N3N=C(c4ccccc4)/C(=N/Nc4ccccc4)C3=O)cc2)CC1	4.13	4.44	6.45	
O=C1CCN(C(=O)c2ccc(N3N=C(c4ccccc4)/C(=N/Nc4ccccc4)C3=O)cc2)CC1	> 50	> 50	> 50	
COc1cc(N/N=C2\C(=O)N(c3ccc(C(=O)N4CCC(N(C)C)CC4)cc3)N=C2c2ccccc2)ccc1F	3.37	2.79	3.94	Activity (A549 [7]): 22.2%; Activity (A549 [8]): 39.6%; Activity (A549 [9]): 2.85%; Activity (A549 [10]): 35.4%; Activity (A549 [13]): Active; Activity (A549 [12]): 61.8%
CN(C)C1CCN(C(=O)c2ccc(N3N=C(c4ccccc4)/C(=N/Nc4ccc5ccccc5c4)C3=O)cc2)CC1	2.18	4.52	4.78	
